# Measured values as given in patent US20170166555A1, “FUNCTIONALISED AND SUBSTITUTED INDOLES AS ANTI-CANCER AGENTS” (Novogen Limited, priority 2013, published 2017).
# Read-outs that look alike come from different tables or passages of the source.
# Experiments:
# Assay in all cases: Anti-proliferative assay, cell-titre luminescent reagent, 72 h (GVK-BIO)
# Format in all cases: cell-based
# [1] = tested on: A549 non-small cell lung carcinoma cells; details: read-out: IC50/μM Lung (NSLC) A549
# Description: (§1) The ability of compounds 4001, 4002, 4008, 4010, 4011, 4013-4015, 4018, 4026, 4045-4113 and 4115-4127 to inhibit the proliferation of cancer cells representative of neuroblastoma, melanoma, prostate cancer, colorectal cancer, non-small cell lung carcinoma, and triple negative breast cancer was assessed. These studies were conducted by contract research (GVK-BIO). Briefly, a pre-determined number of cells as calculated from cell growth assays for each of the cell lines employed were seeded into their respective culture medium (using ATCC culture parameters—http://www.atcc.org) and cultured for 24 h at 37° C. and 5% CO2 in 96-well culture plates. Once attached, each cell line was then exposed to various concentrations of each respective analogue (30, 3, 0.3 and 0.03 μM for compounds in Tables 2, 3 and 4; 30, 10, 3, 1, 0.3 and 0.1 μM for compounds in Table 5), cultured for a further 72 h and exposed to cell-titre luminescent reagent (100 μL/well) for a further 30 min). Luminescence was captured using an EnVision multilabel reader and the data for each analogue concentration compared against no treatment control. For compounds in Tables 2-4, semi-log plots of Percent of Control versus concentration were prepared and IC50 determined using linear regression analysis. For compounds in Table 5, cell viability was normalized to control (vehicle alone) and dose-response curves, and half maximal effective concentration (EC50) values were determined using Graph Pad Prism 6 (nonlinear regression sigmoidal dose-response variable slope).
# [2] = tested on: MDA-MB-231 triple negative breast cancer cells
# Description: as §1
# [3] = tested on: CaCo2 colorectal cancer cells
# Description: as §1
# [4] = tested on: SK-Mel-28 melanoma cells
# Description: as §1
# [5] = tested on: SK-N-SH neuroblastoma cells
# Description: as §1
# [6] = tested on: DU145 prostate cancer cells
# Description: as §1
# [7] = tested on: PC3 prostate cancer cells
# Description: as §1
# [8] = Homo sapiens, A549, 72 h, 30, 10, 3, 1, 0.3 and 0.1 μM, nonlinear regression (Table 5)
# [9] = Homo sapiens, MDA-MB-231, 72 h, 30, 10, 3, 1, 0.3 and 0.1 μM, nonlinear regression (Table 5)
# [10] = Homo sapiens, Caco-2, 72 h, 30, 10, 3, 1, 0.3 and 0.1 μM, nonlinear regression (Table 5)
# [11] = Homo sapiens, SK-MEL-28, 72 h, 30, 10, 3, 1, 0.3 and 0.1 μM, nonlinear regression (Table 5)
# [12] = Homo sapiens, SK-N-SH, 30, 10, 3, 1, 0.3 and 0.1 μM, nonlinear regression (Table 5)
# [13] = Homo sapiens, DU-145, 72 h, 30, 10, 3, 1, 0.3 and 0.1 μM, nonlinear regression (Table 5)
# [14] = 30, 10, 3, 1, 0.3 and 0.1 μM, nonlinear regression (Table 5)
# [15] = Homo sapiens, A549, 72 h, 30, 3, 0.3 and 0.03 μM, linear regression (Tables 2-4)
# [16] = Homo sapiens, MDA-MB-231, 72 h, 30, 3, 0.3 and 0.03 μM, linear regression (Tables 2-4)
# [17] = Homo sapiens, Caco-2, 72 h, 30, 3, 0.3 and 0.03 μM, linear regression (Tables 2-4)
# [18] = Homo sapiens, SK-MEL-28, 72 h, 30, 3, 0.3 and 0.03 μM, linear regression (Tables 2-4)
# [19] = Homo sapiens, SK-N-SH, 30, 3, 0.3 and 0.03 μM, linear regression (Tables 2-4)
# [20] = Homo sapiens, DU-145, 72 h, 30, 3, 0.3 and 0.03 μM, linear regression (Tables 2-4)
# [21] = 30, 3, 0.3 and 0.03 μM, linear regression (Tables 2-4)
Compound,"IC50 [1, 8] [µM]","IC50 [2, 9] [µM]","IC50 [3, 10] [µM]","IC50 [4, 11] [µM]","IC50 [5, 12] [µM]","IC50 [6, 13] [µM]","IC50 [7, 14] [µM]","IC50 [1, 15] [µM]","IC50 [2, 16] [µM]","IC50 [3, 17] [µM]","IC50 [4, 18] [µM]","IC50 [5, 19] [µM]","IC50 [6, 20] [µM]","IC50 [7, 21] [µM]","IC50 [1, 21] [µM]","IC50 [2, 21] [µM]","IC50 [3, 21] [µM]","IC50 [4, 21] [µM]","IC50 [5, 21] [µM]","IC50 [6, 21] [µM]"
"CN(C)CCCn1ccc2cc(Oc3ccc(C(=O)Nc4ccc(F)cc4)cc3)ccc21 [Compound 4088, 4-((1-(3-(dimethylamino)propyl)-1H-indol-5-yl)oxy)-N-(4-fluorophenyl)benzamide]",–,–,–,–,–,–,–,3.4,3.8,4.1,4.3,3.4,3.3,3.5,–,–,–,–,–,–
"COc1ccc(NC(=O)c2ccc(Oc3ccc4c(ccn4CCCN(C)C)c3)cc2)cc1 [Compound 4089, 4-((1-(3-(dimethylamino)propyl)-1H-indol-5-yl)oxy)-N-(4-methoxyphenyl)benzamide]",7.7,5.2,13.2,4.3,4.4,4.4,4.4,–,–,–,–,–,–,–,–,–,–,–,–,–
"CN(C)CCCn1ccc2cc(Oc3ccc(C(=O)Nc4ccc5c(c4)OCO5)cc3)ccc21 [Compound 4090, N-(benzo[d][1,3]dioxol-5-yl)-4-((1-(3-(dimethylamino)propyl)-1H-indol-5-yl)oxy)benzamide]",8.4,9.6,5.3,7.2,6.3,4.6,2.5,–,–,–,–,–,–,–,–,–,–,–,–,–
"CN(C)CCCn1ccc2cc(Oc3ccc(C(=O)Nc4cccc(F)c4)cc3)ccc21 [Compound 4091, 4-((1-(3-(dimethylamino)propyl)-1H-indol-5-yl)oxy)-N-(3-fluorophenyl)benzamide]",9.5,28.9,10.2,15.4,9.7,10.6,19.6,–,–,–,–,–,–,–,–,–,–,–,–,–
"COc1cccc(NC(=O)c2ccc(Oc3ccc4c(ccn4CCCN(C)C)c3)cc2)c1 [Compound 4092, 4-((1-(3-(dimethylamino)propyl)-1H-indol-5-yl)oxy)-N-(3-methoxyphenyl)benzamide]",8.3,22.6,17.1,13.3,13.8,16.7,38.3,–,–,–,–,–,–,–,–,–,–,–,–,–
"COc1ccc(NC(=O)c2ccc(Oc3ccc4c(c3)c(C)c(C)n4CCCN(C)C)cc2)cc1 [Compound 4094, 4-((1-(3-(dimethylamino)propyl)-2,3-dimethyl-1H-indol-5-yl)oxy)-N-(4-methoxyphenyl)benzamide]",2.7,1.7,4.2,3.8,1.8,2,1.5,–,–,–,–,–,–,–,–,–,–,–,–,–
"CN(C)CCCn1ccc2cc(Nc3cccc(C(=O)Nc4ccc(F)cc4)c3)ccc21 [Compound 4099, 3-((1-(3-(dimethylamino)propyl)-1H-indol-5-yl)amino)-N-(4-fluorophenyl)benzamide]",–,–,–,–,–,–,–,–,–,–,–,–,–,4.9,4.1,3.4,> 30,3.7,3.9,5.5
"COc1ccc(NC(=O)c2ccc(Nc3ccc4c(ccn4CCCN(C)C)c3)cc2)cc1 [Compound 4100, 4-((1-(3-(dimethylamino)propyl)-1H-indol-5-yl)amino)-N-(4-methoxyphenyl)benzamide]",–,–,–,–,–,–,–,4.5,5.2,> 30,2.5,3.6,> 30,> 30,–,–,–,–,–,–

# More lines, now with the values ahead:
"IC50 [1, 8] [µM]","IC50 [2, 9] [µM]","IC50 [3, 10] [µM]","IC50 [4, 11] [µM]","IC50 [5, 12] [µM]","IC50 [6, 13] [µM]","IC50 [7, 14] [µM]","IC50 [1, 15] [µM]","IC50 [2, 16] [µM]","IC50 [3, 17] [µM]","IC50 [4, 18] [µM]","IC50 [5, 19] [µM]","IC50 [6, 20] [µM]","IC50 [7, 21] [µM]","IC50 [1, 21] [µM]","IC50 [2, 21] [µM]","IC50 [3, 21] [µM]","IC50 [4, 21] [µM]","IC50 [5, 21] [µM]","IC50 [6, 21] [µM]",Compound
4.9,4.2,4,4.6,4.8,2.6,3.9,–,–,–,–,–,–,–,–,–,–,–,–,–,"Cc1c(C)n(CCCN(C)C)c2ccc(Cc3ccc(C(=O)Nc4ccc(F)cc4)cc3)cc12 [Compound 4082, 4-((1-(3-(dimethylamino)propyl)-2,3-dimethyl-1H-indol-5-yl)methyl)-N-(4-fluorophenyl)benzamide]"
11.2,13.1,11.9,4.7,3.3,5.1,13.2,–,–,–,–,–,–,–,–,–,–,–,–,–,"COc1ccc(NC(=O)c2ccc(Cc3ccc4c(c3)c(C)c(C)n4CCCN(C)C)cc2)cc1 [Compound 4083, 4-((1-(3-(dimethylamino)propyl)-2,3-dimethyl-1H-indol-5-yl)methyl)-N-(4-methoxyphenyl)benzamide]"
6,6.5,7.1,5.5,10.6,4.8,3.5,–,–,–,–,–,–,–,–,–,–,–,–,–,"Cc1c(C)n(CCCN(C)C)c2ccc(Cc3ccc(C(=O)Nc4ccc5c(c4)OCO5)cc3)cc12 [Compound 4084, N-(benzo[d][1,3]dioxol-5-yl)-4-((1-(3-(dimethylamino)propyl)-2,3-dimethyl-1H-indol-5-yl)methyl)benzamide]"
–,–,–,–,–,–,–,10.1,11.2,10.9,10.5,9.8,11,10.1,–,–,–,–,–,–,"Cc1c(C)n(CCCN(C)C)c2ccc(Cc3ccc(C(=O)Nc4cccc(F)c4)cc3)cc12 [Compound 4085, 4-((1-(3-(dimethylamino)propyl)-2,3-dimethyl-1H-indol-5-yl)methyl)-N-(3-fluorophenyl)benzamide]"
5,6.2,7.6,5.2,5.7,4.3,4.8,–,–,–,–,–,–,–,–,–,–,–,–,–,"COc1cccc(NC(=O)c2ccc(Cc3ccc4c(c3)c(C)c(C)n4CCCN(C)C)cc2)c1 [Compound 4086, 4-((1-(3-(dimethylamino)propyl)-2,3-dimethyl-1H-indol-5-yl)methyl)-N-(3-methoxyphenyl)benzamide]"
8.9,7.5,23.1,4.8,5.6,7.1,7.4,–,–,–,–,–,–,–,–,–,–,–,–,–,"Cc1c(C)n(CCCN(C)C)c2ccc(Cc3ccc(C(=O)Nc4ccccc4)cc3)cc12 [Compound 4087, 4-((1-(3-(dimethylamino)propyl)-2,3-dimethyl-1H-indol-5-yl)methyl)-N-phenylbenzamide]"
–,–,–,–,–,–,–,1,1.6,2.3,2.3,1.5,1.2,1.4,–,–,–,–,–,–,"Cc1c(C)n(CCCN(C)C)c2ccc(Oc3ccc(C(=O)Nc4ccc5c(c4)OCO5)cc3)cc12 [Compound 4095, N-(benzo[d][1,3]dioxol-5-yl)-4-((1-(3-(dimethylamino)propyl)-2,3-dimethyl-1H-indol-5-yl)oxy)benzamide]"
–,–,–,–,–,–,–,2.9,2.6,2.7,3.5,3.7,3.3,2.5,–,–,–,–,–,–,"Cc1c(C)n(CCCN(C)C)c2ccc(Oc3ccc(C(=O)Nc4cccc(F)c4)cc3)cc12 [Compound 4096, 4-((1-(3-(dimethylamino)propyl)-2,3-dimethyl-1H-indol-5-yl)oxy)-N-(3-fluorophenyl)benzamide]"
–,–,–,–,–,–,–,3,2.5,3.5,3.6,2.9,3.5,4.9,–,–,–,–,–,–,"COc1cccc(NC(=O)c2ccc(Oc3ccc4c(c3)c(C)c(C)n4CCCN(C)C)cc2)c1 [Compound 4097, 4-((1-(3-(dimethylamino)propyl)-2,3-dimethyl-1H-indol-5-yl)oxy)-N-(3-methoxyphenyl)benzamide]"
–,–,–,–,–,–,–,2.9,3.7,4,3.8,3.4,3.4,3.3,–,–,–,–,–,–,"Cc1c(C)n(CCCN(C)C)c2ccc(Oc3ccc(C(=O)Nc4ccccc4)cc3)cc12 [Compound 4098, 4-((1-(3-(dimethylamino)propyl)-2,3-dimethyl-1H-indol-5-yl)oxy)-N-phenylbenzamide]"
